31 molecules from patent US7875647B2, “Heteroaryl-pyrazole derivatives as cannabinoid CB1 receptor antagonists” (Green Cross Corporation, priority 2006, dated 2011) can be followed below.

Structures are written as SMILES. Like-named read-outs stand apart in the source and are kept apart here.

The test concerns the target T1, Cannabinoid-1 receptor (CB1R) (Rattus norvegicus, UniProt P20272).
T1 construct: The tissue obtained from the brain of SD rats was homogenized; from tissue; host or cells: brain of SD rats (membrane pellet of the homogenate)
Nature of the test: Cannabinoid-1 receptor (CB1R) binding affinity assay ([3H]CP-55940, rat CB-1 receptor binding protocol). Conditions: brain tissue of SD rats, [3H]CP-55940, 30° C. 60 min.

T1 sequence (P20272 whole entry): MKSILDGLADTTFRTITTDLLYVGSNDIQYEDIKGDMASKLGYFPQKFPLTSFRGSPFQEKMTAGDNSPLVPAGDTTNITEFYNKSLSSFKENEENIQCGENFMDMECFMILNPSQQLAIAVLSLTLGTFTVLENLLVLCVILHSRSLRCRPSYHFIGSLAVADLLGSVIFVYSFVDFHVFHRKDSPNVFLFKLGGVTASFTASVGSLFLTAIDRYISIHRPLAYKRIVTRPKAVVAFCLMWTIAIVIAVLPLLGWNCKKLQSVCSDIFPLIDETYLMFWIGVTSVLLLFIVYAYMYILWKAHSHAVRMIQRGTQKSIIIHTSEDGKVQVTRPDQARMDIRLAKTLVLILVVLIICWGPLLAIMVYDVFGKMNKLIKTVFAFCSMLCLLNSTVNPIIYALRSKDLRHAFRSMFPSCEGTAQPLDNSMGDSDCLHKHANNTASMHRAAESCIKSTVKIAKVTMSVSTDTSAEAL

In the case of `CC(=O)OCc1c(-c2nnc(C(C)(C)C)o2)nn(-c2ccc(Cl)cc2Cl)c1-c1ccc(Br)cc1` [Example 195, (5-(4-bromophenyl)-3-(5-tert-butyl-1,3,4-oxadiazol-2-yl)-1-(2,4-dichlorophenyl)-1H-pyrazol-4-yl)methyl acetate], for the setting “read-out: IC50”, the IC50 stood at 12.1 nM.

Turning to `CCCn1nnnc1-c1nn(-c2ccc(Cl)cc2Cl)c(-c2ccc(Cl)cc2)c1C` [Example 565, 5-(5-(4-Chlorophenyl)-1-(2,4-dichlorophenyl)-4-methyl-1H-pyrazol-3-yl)-1-propyl-1H-tetrazole], the IC50 (read-out: IC50) is 68.9 nM.

On to `Cc1c(-c2ncc(C3CCCCC3)o2)nn(-c2ccc(Cl)cc2Cl)c1-c1ccc(Cl)cc1` [Example 638, 2-(5-(4-chlorophenyl)-1-(2,4-dichlorophenyl)-4-methyl-1H-pyrazol-3-yl)-5-cyclohexyloxazole], for which, for the setting “read-out: IC50”, the IC50 came to 93.9 nM.

Turning to `Clc1ccc(-c2c(Cn3cncn3)c(-c3nnc(C4(c5ccccc5)CC4)s3)nn2-c2ccc(Cl)cc2Cl)cc1` [Example 507, 2-(4-((1H-1,2,4-triazol-1-yl)methyl)-5-(4-chlorophenyl)-1-(2,4-dichlorophenyl)-1H-pyrazol-3-yl)-5-(1-phenylcyclopropyl)-1,3,4-thiadiazole], the IC50 (read-out: IC50) was 1.79 nM.

For `CCc1c(-c2nnc(C3(c4ccc(Cl)cc4)CC3)s2)nn(-c2ccc(Cl)cc2Cl)c1-c1ccc(Br)cc1` [Example 477, 2-(5-(4-bromophenyl)-1-(2,4-dichlorophenyl)-4-ethyl-1H-pyrazol-3-yl)-5-(1-(4-chlorophenyl)cyclopropyl)-1,3,4-thiadiazole], the IC50 (read-out: IC50) was determined as 4.1 nM.

As for `Cc1c(-c2nnn(Cc3ccccc3)n2)nn(-c2ccc(Cl)cc2Cl)c1-c1ccc(Cl)cc1` [Example 582, 2-Benzyl-5-(5-(4-chlorophenyl)-1-(2,4-dichlorophenyl)-4-methyl-1H-pyrazol-3-yl)-2H-tetrazole], the IC50 (read-out: IC50) stood at 105 nM.

Turning to `CCc1c(-c2nnc(C3(c4ccc(Cl)cc4)CCC3)o2)nn(-c2ccccc2Cl)c1-c1ccc(Cl)cc1` [Example 147, 2-(1-(2-chlorophenyl)-5-(4-chlorophenyl)-4-ethyl-1H-pyrazol-3-yl)-5-(1-(4-chlorophenyl)cyclobutyl)-1,3,4-oxadiazole], the IC50 (read-out: IC50) amounted to 5.75 nM.

With `Cc1c(-c2nnc(C3(c4ccccc4)CC3)o2)nn(-c2ccc(Cl)cc2Cl)c1-c1ccc(Cl)cc1` [Example 71, 2-(5-(4-chlorophenyl)-1-(2,4-dichlorophenyl)-4-methyl-1H-pyrazol-3-yl)-5-(1-phenylcyclopropyl)-1,3,4-oxadiazole], the IC50 (read-out: IC50) came to 11 nM.

Consider `CCc1c(-c2nnc(C3CCCCC3)s2)nn(-c2ccc(Cl)cc2Cl)c1-c1ccc(Br)cc1` [Example 374, 2-(5-(4-Bromophenyl)-1-(2,4-dichlorophenyl)-4-ethyl-1H-pyrazol-3-yl)-5-cyclohexyl-1,3,4-thiadiazole], for which the IC50 (read-out: IC50) came out at 30.5 nM.

For the molecule `C=CCC1(c2nnc(-c3nn(-c4ccc(Cl)cc4Cl)c(-c4ccc(Br)cc4)c3CC)o2)CC1` [Example 259, 2-(1-allylcyclopropyl)-5-(5-(4-bromophenyl)-1-(2,4-dichlorophenyl)-4-ethyl-1H-pyrazol-3-yl)-1,3,4-oxadiazole], the IC50 (IC50(nM)) was 9.57 nM.

`CCCCOCc1c(-c2nnc(C(C)(C)C)o2)nn(-c2ccc(Cl)cc2Cl)c1-c1ccc(Cl)cc1` [Example 206, 2-(4-(butoxymethyl)-5-(4-chlorophenyl)-1-(2,4-dichlorophenyl)-1H-pyrazol-3-yl)-5-tert-butyl-1,3,4-oxadiazole]: the IC50 (read-out: IC50) came out at 113 nM.

As to `Cc1c(-c2nnc(C3(c4ccc(Cl)cc4)CC3)s2)nn(-c2ccc(Cl)cc2Cl)c1-c1ccc(Cl)cc1` [Example 430, 2-(5-(4-chlorophenyl)-1-(2,4-dichlorophenyl)-4-methyl-1H-pyrazol-3-yl)-5-(1-(4-chlorophenyl)cyclopropyl)-1,3,4-thiadiazole], under “read-out: IC50”, the IC50 is 13.9 nM.

`Cc1c(-c2nnc(C(C)(C)c3ccc(Cl)cc3)s2)nn(-c2ccc(Cl)cc2Cl)c1-c1ccc(Cl)cc1` [Example 402, 2-(5-(4-chlorophenyl)-1-(2,4-dichlorophenyl)-4-methyl-1H-pyrazol-3-yl)-5-(2-(4-chlorophenyl)propan-2-yl)-1,3,4-thiadiazole]: the IC50 (read-out: IC50) amounted to 5.34 nM.

Take `CCCCOC(C)(C)c1nnc(-c2nn(-c3ccc(Cl)cc3Cl)c(-c3ccc(Cl)cc3)c2C)s1` [Example 457, 2-(2-butoxypropan-2-yl)-5-(5-(4-chlorophenyl)-1-(2,4-dichlorophenyl)-4-methyl-1H-pyrazol-3-yl)-1,3,4-thiadiazole]: where the note is “read-out: IC50”, the IC50 turned out to be 16.9 nM.

Regarding `FC(F)(F)C1(c2nnc(-c3nn(-c4ccc(Cl)cc4Cl)c(-c4ccc(Cl)cc4)c3Cn3cncn3)s2)CC1` [Example 511, 2-(4-((1H-1,2,4-triazol-1-yl)methyl)-5-(4-chlorophenyl)-1-(2,4-dichlorophenyl)-1H-pyrazol-3-yl)-5-(1-(trifluoromethyl)cyclopropyl)-1,3,4-thiadiazole], under “read-out: IC50”, the IC50 turned out to be 2.29 nM.

Take `CC(C)(C)c1nnc(-c2nn(-c3ccc(Cl)cc3Cl)c(-c3ccc(Cl)cc3)c2Cn2cccn2)o1` [Example 298, 2-(4-((1H-pyrazol-1-yl)methyl)-5-(4-chlorophenyl)-1-(2,4-dichlorophenyl)-1H-pyrazol-3-yl)-5-tert-butyl-1,3,4-oxadiazole]: the concentration for half-maximal inhibition (IC50) (read-out: IC50) was 20.5 nM.

In the case of `Cc1c(-c2n[nH]c(C3CCCCCC3)n2)nn(-c2ccc(Cl)cc2Cl)c1-c1ccc(Cl)cc1` [Example 615, 3-(5-(4-chlorophenyl)-1-(2,4-dichlorophenyl)-4-methyl-1H-pyrazol-3-yl)-5-cycloheptyl-1H-1,2,4-triazole], the 50% inhibitory concentration (IC50) (read-out: IC50) came to 625 nM.

`CCC(C)c1nnc(-c2nn(-c3ccccc3Cl)c(-c3ccc(Br)cc3)c2C)s1` (stereo not shown) [Example 428, 2-(5-(4-bromophenyl)-1-(2-chlorophenyl)-4-methyl-1H-pyrazol-3-yl)-5-sec-butyl-1,3,4-thiadiazole]: the IC50 (read-out: IC50) worked out at 15.7 nM.

Consider `CC(C)(C)c1nnc(-c2nn(-c3ccc(Cl)cc3Cl)c(-c3ccc(Cl)cc3)c2CF)o1` [Example 221, 2-tert-butyl-5-(5-(4-chlorophenyl)-1-(2,4-dichlorophenyl)-4-(fluoromethyl)-1H-pyrazol-3-yl)-1,3,4-oxadiazole], for which the IC50 (read-out: IC50) turned out to be 14.7 nM.

Consider `CCCCC(C)c1nnc(-c2nn(-c3ccc(Cl)cc3Cl)c(-c3ccc(Cl)cc3)c2C)s1` (stereo not shown) [Example 379, 2-(5-(4-Chlorophenyl)-1-(2,4-dichlorophenyl)-4-methyl-1H-pyrazol-3-yl)-5-(hexan-2-yl)-1,3,4-thiadiazole], for which the IC50 (read-out: IC50) came out at 16.9 nM.

In the case of `Clc1ccc(-c2c(Cn3cncn3)c(-c3nnc(C4CCC4)s3)nn2-c2ccc(Cl)cc2Cl)cc1` [Example 504, 2-(4-((1H-1,2,4-triazol-1-yl)methyl)-5-(4-chlorophenyl)-1-(2,4-dichlorophenyl)-1H-pyrazol-3-yl)-5-cyclobutyl-1,3,4-thiadiazole], the IC50 (read-out: IC50) stood at 2.18 nM.

With `CCC(C)c1nnc(-c2nn(-c3ccc(Cl)cc3)c(-c3ccc(Cl)cc3)c2C)s1` (stereo not shown) [Example 444, 2-(1,5-bis(4-chlorophenyl)-4-methyl-1H-pyrazol-3-yl)-5-sec-butyl-1,3,4-thiadiazole], under “read-out: IC50”, the IC50 was found to be 292 nM.

As for `CCCCC(C)c1nnc(-c2nn(-c3ccc(Cl)cc3Cl)c(-c3ccc(Br)cc3)c2C)s1` (stereo not shown) [Example 380, 2-(5-(4-Bromophenyl)-1-(2,4-dichlorophenyl)-4-methyl-1H-pyrazol-3-yl)-5-(hexan-2-yl)-1,3,4-thiadiazole], the half-maximal inhibitory concentration (IC50) (IC50(nM)) turned out to be 11.5 nM.

For `C=Cc1c(-c2nnc(C(C)(C)C)o2)nn(-c2ccc(Cl)cc2Cl)c1-c1ccc(Br)cc1` [Example 228, 2-(5-(4-bromophenyl)-1-(2,4-dichlorophenyl)-4-vinyl-1H-pyrazol-3-yl)-5-tert-butyl-1,3,4-oxadiazole], the IC50 (IC50(nM)) stood at 16.6 nM.

As for `CCc1c(-c2nnc(C3(Cc4ccc(Cl)cc4)CC3)o2)nn(-c2ccc(Cl)cc2Cl)c1-c1ccc(Br)cc1` [Example 281, 2-(1-(4-chlorobenzyl)cyclopropyl)-5-(5-(4-bromophenyl)-1-(2,4-dichlorophenyl)-4-ethyl-1H-pyrazol-3-yl)-1,3,4-oxadiazole], the IC50 (read-out: IC50) was 6.21 nM.

Take `Cc1c(-c2nnn(Cc3ccccn3)n2)nn(-c2ccc(Cl)cc2Cl)c1-c1ccc(Cl)cc1` [Example 584, 2-((5-(5-(4-Chlorophenyl)-1-(2,4-dichlorophenyl)-4-methyl-1H-pyrazol-3-yl)-2H-tetrazol-2-yl)methyl)pyridine]: for the setting “read-out: IC50”, the IC50 came out at 93 nM.

`Cc1c(-c2nnc(C3(C#N)CC3)o2)nn(-c2ccc(Cl)cc2Cl)c1-c1ccc(Cl)cc1` [Example 267, 1-(5-(5-(4-chlorophenyl)-1-(2,4-dichlorophenyl)-4-methyl-1H-pyrazol-3-yl)-1,3,4-oxadiazol-2-yl)cyclopropanecarbonitrile]: the IC50 (read-out: IC50) was found to be 95.3 nM.

`CC(=O)c1c(-c2nnc(C3(c4ccc(Cl)cc4)CC3)o2)nn(-c2ccc(Cl)cc2Cl)c1-c1ccc(Cl)cc1` [Example 215, 1-(5-(4-chlorophenyl)-3-(5-(1-(4-chlorophenyl)cyclopropyl)-1,3,4-oxadiazol-2-yl)-1-(2,4-dichlorophenyl)-1H-pyrazol-4-yl)ethanone]: where the note is “read-out: IC50”, the IC50 came out at 10.8 nM.

Consider `COC(C)(C)c1nnc(-c2nn(-c3ccc(Cl)cc3Cl)c(-c3ccc(Cl)cc3)c2C)o1` [Example 98, 2-(5-(4-chlorophenyl)-1-(2,4-dichlorophenyl)-4-methyl-1H-pyrazol-3-yl)-5-(2-methoxypropan-2-yl)-1,3,4-oxadiazole], for which the IC50 (read-out: IC50) was found to be 33.7 nM.

`Cc1c(-c2nc(C(C)C)n(C(C)C)n2)nn(-c2ccc(Cl)cc2Cl)c1-c1ccc(Cl)cc1` [Example 636, 3-(5-(4-chlorophenyl)-1-(2,4-dichlorophenyl)-4-methyl-1H-pyrazol-3-yl)-1,5-diisopropyl-1H-1,2,4-triazole]: the IC50 (read-out: IC50) stood at 851 nM.

As for `CC(C)(C)c1nnc(-c2nn(-c3ccc(Cl)cc3Cl)c(-c3ccc(Cl)cc3)c2CN2CCCCC2)o1` [Example 291, 2-tert-butyl-5-(5-(4-chlorophenyl)-1-(2,4-dichlorophenyl)-4-(piperidin-1-ylmethyl)-1H-pyrazol-3-yl)-1,3,4-oxadiazole], the IC50 (read-out: IC50) turned out to be 45.7 nM.
